US20230129258A1, “HETEROTANDEM BICYCLIC PEPTIDE COMPLEXES” (BicycleTx Limited, priority 2019, published 2023)
Like-named read-outs stand apart in the source and are kept apart here. Starred links: 1 amine or outer side, 2 acyl side, 3 side chain; linkers in the order of their positions; H or OH if unused. Positions of bridges follow the written chain, without caps; N, C: chain ends. Non-standard residues stand in square brackets, D forms with d. Chains are numbered I, II in the order given. X1 = O=C(CCOCCOCCOCCN(CCOCCOCCOCCn1cc(CCC(=O)[*:2])nn1)CCOCCOCCOCCn1cc(CCC(=O)[*:3])nn1)[*:1]; TATA = O=C(CC[*:1])N1CN(C(=O)CC[*:2])CN(C(=O)CC[*:3])C1; Dip = N[C@H](C(=O)O)C(c1ccccc1)c1ccccc1; Hyp = O=C(O)[C@@H]1C[C@@H](O)CN1; hArg = N=C(N)NCCCC[C@H](N)C(=O)O; tBuAla = CC(C)(C)C[C@H](N)C(=O)O; Nle = CCCC[C@H](N)C(=O)O

How the values were obtained:
Assay type in all cases: cell-based
CD137 [1] = target: T1, CD137 (Homo sapiens, UniProt Q07011); assay: CD137 reporter assay (Promega CD137 luciferase reporter, Jurkat cells) in co-culture with Nectin-4-expressing tumor cells; parameters: host or cells: Jurkat reporter cells; details: co-culture with HT1376, Table 2A; for EC50: EC50 (nM)
CD137 [2] = target: T1, CD137; assay: CD137 reporter assay (Promega, Jurkat cells) in co-culture with EphA2-expressing tumor cells (A549, PC3, HT29); parameters: host or cells: Jurkat reporter cells
Method in brief: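 Readout is Bio-Glo luminescence after 6 h, 37° C co-culture of CD137 reporter Jurkat cells, target tumor cells (EphA2: A549, PC3, HT29; PD-L1: RKO) and titrated test articles in 1% FBS RPMI. EC50 (nM) and maximal induction come from fold change over untreated co-culture.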

human PBMCs = assay: Human PBMC co-culture cytokine secretion assay with EphA2-expressing tumor cells (MC38, HT-1080, HT29); details: human PBMC-MC38 co-culture
Description: […] MC38 were cultured in Dulbecco's Modified Eagle Medium supplemented with 10% heat inactivated Fetal Bovine Serum (FBS), 1× Penicillin/Streptomycin, 10 mM HEPES, and 2 mM L-Glutamine (referred to as R10 medium). Frozen PBMCs from healthy human donors were thawed and washed once in room temperature PBS with benzonase, and then resuspended in RPMI supplemented with 10% heat inactivated Fetal Bovine Serum (FBS), 1× Penicillin/Streptomycin, 10 mM HEPES, and 2 mM L-Glutamine (herein referred to as R10 medium). 100 μl of PBMCs (1,000,000 PBMCs/ml) and 100 μl of tumor cells (100,000 tumor cells/ml) (Effector:Target cell ratio (E:T) 10:1) were plated in each well of a 96 well flat bottom plate for the co-culture assay. 100 ng/ml of soluble anti-CD3 mAb (clone OKT3) was added to the culture on day 0 to stimulate human PBMCs. Test, control compounds, or vehicle controls were diluted in R10 media and 50 μL was added to respective wells to bring the final volume per well to 250 μL. Plates were covered with a breathable film and incubated in a humidified chamber at 37° C. with 5% CO2 for two days. […] Briefly, the standards and samples were added to a black 96 well plate. Microparticle cocktail (provided in Luminex kit, R&D Systems) was added and shaken for 2 hours at room temperature. The plate was washed 3 times using a magnetic holder. Biotin cocktail was then added to the plate and shaken for 1 hour at RT. The plate was washed 3 times using a magnetic holder. Streptavidin cocktail was added to the plate and shaken for 30 minutes at RT. The plates were washed 3 times using a magnetic holder, resuspended in 100 μL of wash buffer, shaken for 2 minutes at RT, and read using the Luminex 2000. Raw data were analyzed using built-in Luminex software to generate standard curves and interpolate protein concentrations, all other data analyses and graphing were performed using Excel and Prism software. Data represents one study with three independent donor PBMCs tested in experimental duplicates.
Similarly, PBMCs from healthy donors were co-cultured with EphA2 expressing cancer cells (MC38 and HT-1080) at a ratio of 5:1 in presence of anti-CD3 and BCY13272. […]

T1 sequence (Q07011 24-255): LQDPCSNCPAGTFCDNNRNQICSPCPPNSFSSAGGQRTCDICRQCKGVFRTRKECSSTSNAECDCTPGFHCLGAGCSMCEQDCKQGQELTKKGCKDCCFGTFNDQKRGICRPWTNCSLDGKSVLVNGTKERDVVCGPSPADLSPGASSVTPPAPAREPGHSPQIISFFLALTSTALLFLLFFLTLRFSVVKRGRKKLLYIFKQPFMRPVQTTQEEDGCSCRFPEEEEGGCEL

Row | Compound | EC50 (CD137 [1]) | Emax (CD137 [1]) | also measured
1 | CCCC[C@@H]1NC(=O)[C@H](Cc2ccc(O)cc2)NC(=O)[C@@H]2CCCN2C(=O)[C@H](CC(=O)O)NC(=O)[C@H](C)NC(=O)[C@H](Cc2ccccc2)NC(=O)[C@@H]2CSCCC(=O)N3CN(CN(C3)C(=O)CCSC[C@@H](C(=O)N[C@@H](CNC(=O)CCc3cn(CCOCCOCCOCCOCCOCCOCCOCCOCCOCCOCCNC(=O)c4cc(C(=O)NCCOCCOCCOCCOCCOCCOCCOCCOCCOCCOCCn5cc(CCC(=O)NC[C@H](NC(=O)[C@@H]6CSCCC(=O)N7CN8CN(C7)C(=O)CCSC[C@H](NC(=O)[C@H](Cc7ccc(O)cc7)NC(=O)[C@@H]7CCCN7C(=O)[C@@H](C)NC(=O)[C@H](CCC(=O)O)NC(=O)[C@@H]7CCCN7C(=O)[C@H](CC(C)(C)C)NC(=O)[C@@H](NC(C)=O)CSCCC8=O)C(=O)N[C@@H](Cc7ccccc7)C(=O)N[C@@H](C)C(=O)N[C@@H](CC(=O)O)C(=O)N7CCC[C@H]7C(=O)N[C@@H](Cc7ccc(O)cc7)C(=O)N[C@@H](CCCC)C(=O)N6)C(N)=O)nn5)cc(C(=O)NCCOCCOCCOCCOCCOCCOCCOCCOCCOCCOCCn5cc(CCC(=O)N[C@H]6CSCCC(=O)N7CN8CN(C7)C(=O)CCSC[C@H](NC(=O)[C@@H](CC(=O)O)NC(=O)[C@H](Cc7cccc9ccccc79)NC(=O)[C@@H]7CCCN7C6=O)C(=O)N[C@@H](CCSC)C(=O)N[C@@H](CCCCNC(=N)N)C(=O)N[C@@H](CC(=O)O)C(=O)N[C@@H](Cc6c[nH]c7ccccc67)C(=O)N[C@@H](CO)C(=O)N[C@@H]([C@@H](C)O)C(=O)N6CCC[C@H]6C(=O)N6C[C@H](O)C[C@H]6C(=O)N[C@@H](Cc6c[nH]c7ccccc67)C(=O)N[C@H](C(N)=O)CSCCC8=O)nn5)c4)nn3)C(N)=O)NC1=O)C(=O)CCSC[C@H](NC(C)=O)C(=O)N[C@@H](CC(C)(C)C)C(=O)N1CCC[C@H]1C(=O)N[C@@H](CCC(=O)O)C(=O)N[C@H](C)C(=O)N1CCC[C@H]1C(=O)N[C@@H](Cc1ccc(O)cc1)C(=O)N2 [BCY10919] | 0.19 nM | 62 fold induction over background | –
2 | CCCC[C@@H]1NC(=O)[C@H](Cc2ccc(O)cc2)NC(=O)[C@@H]2CCCN2C(=O)[C@H](CC(=O)O)NC(=O)[C@H](C)NC(=O)[C@H](Cc2ccccc2)NC(=O)[C@@H]2CSCCC(=O)N3CN(CN(C3)C(=O)CCSC[C@@H](C(=O)N[C@@H](C)C(N)=O)NC1=O)C(=O)CCSC[C@H](NC(C)=O)C(=O)N[C@@H](CC(C)(C)C)C(=O)N1CCC[C@H]1C(=O)N[C@@H](CCC(=O)O)C(=O)N[C@H](CCCCNC(=O)CCc1cn(CCOCCOCCOCCN(CCOCCOCCOCCC(=O)NCCCC[C@H]3NC(=O)[C@H](Cc4cccc5ccccc45)NC(=O)[C@@H]4CCCN4C(=O)[C@@H](NC(C)=O)CSCCC(=O)N4CN5CN(C4)C(=O)CCSC[C@H](NC3=O)C(=O)N[C@@H](CCSC)C(=O)N[C@@H](CCCCNC(=N)N)C(=O)N[C@@H](CC(=O)O)C(=O)N[C@@H](Cc3c[nH]c4ccccc34)C(=O)N[C@@H](CO)C(=O)N[C@@H]([C@@H](C)O)C(=O)N3CCC[C@H]3C(=O)N3C[C@H](O)C[C@H]3C(=O)N[C@@H](Cc3c[nH]c4ccccc34)C(=O)N[C@H](C(N)=O)CSCCC5=O)CCOCCOCCOCCn3cc(CCC(=O)NCCCC[C@H]4NC(=O)[C@H](CCC(=O)O)NC(=O)[C@@H]5CCCN5C(=O)[C@H](CC(C)(C)C)NC(=O)[C@@H](NC(C)=O)CSCCC(=O)N5CN6CN(C5)C(=O)CCSC[C@H](NC(=O)[C@H](Cc5ccc(O)cc5)NC(=O)[C@@H]5CCCN5C4=O)C(=O)N[C@@H](Cc4ccccc4)C(=O)N[C@@H](C)C(=O)N[C@@H](CC(=O)O)C(=O)N4CCC[C@H]4C(=O)N[C@@H](Cc4ccc(O)cc4)C(=O)N[C@@H](CCCC)C(=O)N[C@H](C(=O)N[C@@H](C)C(N)=O)CSCCC6=O)nn3)nn1)C(=O)N1CCC[C@H]1C(=O)N[C@@H](Cc1ccc(O)cc1)C(=O)N2 [BCY12490] | 0.23 nM | – | –
3 | CCCC[C@@H]1NC(=O)[C@H](Cc2ccc(O)cc2)NC(=O)[C@@H]2CCCN2C(=O)[C@H](CC(=O)O)NC(=O)[C@H](C)NC(=O)[C@H](Cc2ccccc2)NC(=O)[C@@H]2CSCCC(=O)N3CN(CN(C3)C(=O)CCSC[C@@H](C(=O)N[C@@H](C)C(N)=O)NC1=O)C(=O)CCSC[C@H](NC(C)=O)C(=O)N[C@@H](CC(C)(C)C)C(=O)N1CCC[C@H]1C(=O)N[C@@H](CCC(=O)O)C(=O)N[C@H](CCCCNC(=O)CCc1cn(CCOCCOCCOCCOCCOCCOCCOCCOCCOCCOCCNC(=O)c3cc(C(=O)NCCOCCOCCOCCOCCOCCOCCOCCOCCOCCOCCn4cc(CCC(=O)NCCCC[C@H]5NC(=O)[C@H](CCC(=O)O)NC(=O)[C@@H]6CCCN6C(=O)[C@H](CC(C)(C)C)NC(=O)[C@@H](NC(C)=O)CSCCC(=O)N6CN7CN(C6)C(=O)CCSC[C@H](NC(=O)[C@H](Cc6ccc(O)cc6)NC(=O)[C@@H]6CCCN6C5=O)C(=O)N[C@@H](Cc5ccccc5)C(=O)N[C@@H](C)C(=O)N[C@@H](CC(=O)O)C(=O)N5CCC[C@H]5C(=O)N[C@@H](Cc5ccc(O)cc5)C(=O)N[C@@H](CCCC)C(=O)N[C@H](C(=O)N[C@@H](C)C(N)=O)CSCCC7=O)nn4)cc(C(=O)NCCOCCOCCOCCOCCOCCOCCOCCOCCOCCOCCn4cc(CCC(=O)N[C@H]5CSCCC(=O)N6CN7CN(C6)C(=O)CCSC[C@H](NC(=O)[C@@H](CC(=O)O)NC(=O)[C@H](Cc6cccc8ccccc68)NC(=O)[C@@H]6CCCN6C5=O)C(=O)N[C@@H](CCSC)C(=O)N[C@@H](CCCCNC(=N)N)C(=O)N[C@@H](CC(=O)O)C(=O)N[C@@H](Cc5c[nH]c6ccccc56)C(=O)N[C@@H](CO)C(=O)N[C@@H]([C@@H](C)O)C(=O)N5CCC[C@H]5C(=O)N5C[C@H](O)C[C@H]5C(=O)N[C@@H](Cc5c[nH]c6ccccc56)C(=O)N[C@H](C(N)=O)CSCCC7=O)nn4)c3)nn1)C(=O)N1CCC[C@H]1C(=O)N[C@@H](Cc1ccc(O)cc1)C(=O)N2 [BCY10918] | 0.16 nM | – | –
4 | CCCC[C@@H]1NC(=O)[C@H](Cc2ccc(O)cc2)NC(=O)[C@@H]2CCCN2C(=O)[C@H](CCC(=O)O)NC(=O)[C@H](C)NC(=O)[C@H](Cc2ccccc2)NC(=O)[C@@H]2CSCCC(=O)N3CN(CN(C3)C(=O)CCSC[C@H](NC(C)=O)C(=O)N[C@@H](CC(C)(C)C)C(=O)N3CCC[C@H]3C(=O)N[C@@H](CCC(=O)O)C(=O)N[C@H](CCCCNC(=O)CCc3cn(CCOCCOCCOCCN(CCOCCOCCOCCC(=O)N[C@H]4CSCCC(=O)N5CN6CN(C5)C(=O)CCSC[C@H](NC(=O)[C@@H](CC(=O)O)NC(=O)[C@H](Cc5cccc7ccccc57)NC(=O)[C@@H]5CCCN5C4=O)C(=O)N[C@@H](CCSC)C(=O)N[C@@H](CCCCNC(=N)N)C(=O)N[C@@H](CC(=O)O)C(=O)N[C@@H](Cc4c[nH]c5ccccc45)C(=O)N[C@@H](CO)C(=O)N[C@@H]([C@@H](C)O)C(=O)N4CCC[C@H]4C(=O)N4C[C@H](O)C[C@H]4C(=O)N[C@@H](Cc4c[nH]c5ccccc45)C(=O)N[C@H](C(N)=O)CSCCC6=O)CCOCCOCCOCCn4cc(CCC(=O)NCCCC[C@H]5NC(=O)[C@H](CCC(=O)O)NC(=O)[C@@H]6CCCN6C(=O)[C@H](CC(C)(C)C)NC(=O)[C@@H](NC(C)=O)CSCCC(=O)N6CN7CN(C6)C(=O)CCSC[C@H](NC(=O)[C@H](Cc6ccc(O)cc6)NC(=O)[C@@H]6CCCN6C5=O)C(=O)N[C@@H](Cc5ccccc5)C(=O)N[C@@H](C)C(=O)N[C@@H](CCC(=O)O)C(=O)N5CCC[C@H]5C(=O)N[C@@H](Cc5ccc(O)cc5)C(=O)N[C@@H](CCCC)C(=O)N[C@H](C(N)=O)CSCCC7=O)nn4)nn3)C(=O)N3CCC[C@H]3C(=O)N[C@@H](Cc3ccc(O)cc3)C(=O)N2)C(=O)CCSC[C@@H](C(N)=O)NC1=O [BCY12487] | – | 12 fold induction over background | –
5 | I: A[hArg]DC[Hyp]LVNPLCL[Dip]P[dD]WTC-NH2 / II: Ac-C[tBuAla]PE[dK]PYCFADPY[Nle]CA-NH2 / III: Ac-C[tBuAla]PE[dK]PYCFADPY[Nle]CA-NH2 (linker I:4-I:11-I:18, II:1-II:8-II:15, III:1-III:8-III:15 via TATA; linker I:N-II:5-III:5 via X1) [BCY13047] | – | – | Emax (fold induction over background) (CD137 [2]; CD137 reporter coculture assay with PC3 tumor cells): 46.43; EC50 (CD137 [2]; EC50, CD137 reporter coculture assay with PC3 tumor cells): 70 pM; EC50 (human PBMCs; Donor 1, 48 h incubation, read-out: Donor 1 EC50 of IFNγ secretion): 310 pM; EC50 (human PBMCs; Donor 2, 48 h incubation, read-out: Donor 2 EC50 of IFNγ secretion): 300 pM
